From patent US12247019B2 (Centaurus Therapeutics, priority 2018, dated 2025)

Biological target: T1, Des1 (Homo sapiens, UniProt O15121)
T1 sequence (O15121 1-323): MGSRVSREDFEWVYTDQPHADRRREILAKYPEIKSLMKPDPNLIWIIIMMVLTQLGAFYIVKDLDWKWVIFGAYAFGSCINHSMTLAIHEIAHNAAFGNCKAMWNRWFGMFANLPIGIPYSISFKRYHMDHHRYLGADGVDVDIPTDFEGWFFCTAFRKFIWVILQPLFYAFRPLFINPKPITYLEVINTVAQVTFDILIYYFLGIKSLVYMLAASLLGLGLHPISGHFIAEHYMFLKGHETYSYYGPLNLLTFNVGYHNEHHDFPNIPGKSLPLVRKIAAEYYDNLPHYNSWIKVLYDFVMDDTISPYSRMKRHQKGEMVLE
Experiment: Jurkat T cell measurement of conversion of dihydroceramide to ceramide (Des1 activity, LC-MS/MS of NBD-C6-ceramide)
Format: cell-based
Set-up: endogenous in cells; host or cells: Jurkat clone E6-1
Conditions: Jurkat clone E6-1 cells, 10 μM NBD-C6-dihydroceramide, 3 hours at 37° C.; for inhibition at 0.5 µM: 0.5 uM compound, read-out: Des1 % Inhib (0.5 uM); for IC50: read-out: Des1 IC50
Protocol: Jurkat T Cell Measurement of Conversion of Dihydroceramide to Ceramide
Jurkat clone E6-1 cells were grown and then seeded at 10^6 cells/mL in a 96-well plate (400 μL in each well. The cells were administered 100 μL of cell culture media containing 50-μM NBD-C6-dihydroceramide (Des1 substrate), affording a final concentration of substrate of 10 μM. The cells were incubated with substrate at 4° C. for 30 minutes. Following the incubation at 4° C., the cell suspension was centrifuged at 1200 rpm for 3 minutes, and the cell pellet is resuspended in 400 μL of fresh media containing various concentrations of either fenretinide (known Des1 inhibitor control compound) or test article. The final concentrations of control compound and test compounds were tested in a range from 0-10 μM. The cells and compounds were incubated at 37° C. for 3 hours. Following the 3-hour incubation, the plate was centrifuged at 2500 g for 3 minutes at 4° C., followed by collection and transfer of 200 μL of the supernatant to a new 96-well plate with 300 μL of methanol an containing appropriate internal standards for liquid chromatography/tandem mass spectroscopy (LC/MS/MS) analysis (internal standard: 500 nM labetalol and 100 nM alprazolam). The samples were vortexed for 2 minutes followed by centrifugation at 3,220 g for 20 minutes. Following centrifugation, 200 μL of the supernatant was transferred to a new 96-well plate for LC-MS/MS analysis to determine the amount of NBD-C6-ceramide (Des1 product) produced. The assay was typically performed in duplicate. A reduction of at least 30% compared to vehicle control (0 μM test article) is indicative of an active compound, and a reduction of 75% compared to vehicle control is preferred.

| inhibition at 0.5 µM [%] | IC50 [nM] | SMILES |
| --- | --- | --- |
| 57.8 |  | O=C(Nc1ccc(O)cc1)N1CCN(c2ccc(F)cc2F)CC1 [Example 28, 4-(2,4-difluorophenyl)-N-(4-hydroxyphenyl)piperazine-1-carboxamide] |
|  | > 1000 | O=C(OCc1ccccc1)N1CCC(S(=O)(=O)Nc2ccc(O)cn2)CC1 [Example 63, Benzyl 4-[(5-hydroxypyridin-2-yl)sulfamoyl]piperidine-1-carboxylate] |
| 77.9 |  | Cn1ncc2c(N3CCN(C(=O)Nc4ccc(O)cn4)CC3)cccc21 [Example 81, N-(5-hydroxypyridin-2-yl)-4-(1-methyl-1H-indazol-4-yl)piperazine-1-carboxamide] |
| 94.3 | 23 | O=C(Nc1ccc(O)cn1)N1CCC(c2ccc(Cl)cc2)CC1 [Example 4, 4-(4-Chlorophenyl)-N-(5-hydroxypyridin-2-yl)piperidine-1-carboxamide] |
| 93 | 9 to 33 | O=C(Nc1ccc(O)cn1)N1CCN(c2ccc(F)cc2F)CC1 [Example 13, 4-(2,4-difluorophenyl)-N-(5-hydroxypyridin-2-yl)piperazine-1-carboxamide] |
| 19.6 |  | O=C(Nc1ccc(O)cn1)NC1CCOCC1 [Example 20, 3-(5-Hydroxypyridin-2-yl)-1-(oxan-4-yl)urea] |
| 95 | 8 | O=C(Nc1ccc(O)cn1)OC1CCN(c2ccccc2)CC1 [Example 44, 1-Phenylpiperidin-4-yl N-(5-hydroxypyridin-2-yl)carbamate] |
| 91.2 | 62 to 86 | O=S(=O)(Nc1ccc(O)cn1)N1CCN(c2ccc(C(F)(F)F)cc2)CC1 [Example 75, N-(5-hydroxypyridin-2-yl)-4-(4-(trifluoromethyl)phenyl)-piperazine-1-sulfonamide] |
| 94.9 | 13 | O=C(Nc1ccc(O)cn1)N1CCC(Cc2ccccc2)CC1 [Example 8, 4-Benzyl-N-(5-hydroxypyridin-2-yl)piperidine-1-carboxamide] |
| 93 | 2.9 | O=C(Nc1ccc(O)cn1)c1cccc(-c2ccccc2)c1 [Example 89, N-(5-hydroxypyridin-2-yl)-[1,1-biphenyl]-3-carboxamide] |
| 93.4 | 19 to 64 | O=C(Nc1ccc(O)cn1)N1CCN(c2cc(F)ccn2)CC1 [Example 78, 4-(4-fluoropyridin-2-yl)-N-(5-hydroxypyridin-2-yl)piperazine-1-carboxamide] |
| 94.7 | 28 | O=C(Nc1ccc(O)cn1)OC1CCN(c2ccc(F)cn2)CC1 [Example 56, 1-(5-fluoropyridin-2-yl)piperidin-4-yl N-(5-hydroxypyridin-2-yl)carbamate] |
| 15 |  | O=C(Nc1ccc(O)cn1)N1CCCCC1 [Example 10, N-(5-Hydroxypyridin-2-yl)piperidine-1-carboxamide] |
| 89.6 | 42 | O=C(Nc1ccc(O)cn1)N1CCC(c2ccccc2)CC1 [Example 1, N-(5-Hydroxypyridin-2-yl)-4-phenylpiperidine-1-carboxamide] |
| 94.5 | 7 | O=C(Nc1ccc(O)cn1)N1CCN(c2ccc(OC(F)(F)F)cn2)CC1 [Example 46, N-(5-hydroxypyridin-2-yl)-4-[5-(trifluoromethoxy)pyridin-2-yl]piperazine-1-carboxamide] |
| 93.8 | 7.6 to 70 | O=C(Nc1ccc(O)cn1)N1CCN(c2ncc(F)cc2F)CC1 [Example 79, 4-(3,5-difluoropyridin-2-yl)-N-(5-hydroxypyridin-2-yl) piperazine-1-carboxamide] |
| 88 | 31 | O=S(=O)(Nc1ccc(O)cn1)N1CCC(c2ccc(Cl)cc2)CC1 [Example 71, 4-(4-chlorophenyl)-N-(5-hydroxypyridin-2-yl)piperidine-1-sulfonamide] |
| 95.9 | 3 | O=C(Nc1ccc(O)cn1)N1CCN(c2ccc(C(F)(F)F)cc2)CC1 [Example 14, N-(5-Hydroxypyridin-2-yl)-4-[4-(trifluoromethyl)phenyl]piperazine-1-carboxamide] |
| 93.2 | 43 | O=C(Nc1ccc(O)cn1)OC1CCN(c2ccccn2)CC1 [Example 59, 1-(pyridin-2-yl)piperidin-4-yl N-(5-hydroxypyridin-2-yl)carbamate] |

| inhibition at 0.5 µM [%] | IC50 [nM] | SMILES |
| --- | --- | --- |
| 69.3 |  | O=C(Nc1ccc(O)cn1)NC1CCCCC1 [Example 21, 1-cyclohexyl-3-(5-hydroxypyridin-2-yl)urea] |
|  | 12 | O=C(Nc1ccc(O)cn1)N1CCN(c2cc(F)cc(F)c2)CC1 [Example 26, 4-(3,5-difluorophenyl)-N-(5-hydroxypyridin-2-yl)piperazine-1-carboxamide] |
| 76.9 |  | O=C(Nc1ccc(O)cn1)N1CCN(c2ccccn2)CC1 [Example 17, N-(5-hydroxypyridin-2-yl)-4-(pyridin-2-yl) piperazine-1-carboxamide] |
| 93.8 | 17 | CC(C)C1CCN(C(=O)Nc2ccc(O)cn2)CC1 [Example 9, N-(5-Hydroxypyridin-2-yl)-4-(propan-2-yl)piperidine-1-carboxamide] |
| 96 | 3 | O=C(Nc1ccc(O)cn1)OC1CCN(c2ccc(C(F)(F)F)cn2)CC1 [Example 60, 1-[5-(trifluoromethyl)pyridin-2-yl]piperidin-4-yl N-(5-hydroxypyridin-2-yl)carbamate] |
| 72.1 |  | O=S(=O)(Nc1ccc(O)cn1)C1CCN(c2ccc(F)cc2)CC1 [Example 66, 1-(4-fluorophenyl)-N-(5-hydroxypyridin-2-yl)piperidine-4-sulfonamide] |
|  | 180 | O=C(Nc1ccc(O)cn1)NC1CCN(c2ccccc2)CC1 [Example 32, 3-(5-hydroxypyridin-2-yl)-1-(1-phenylpiperidin-4-yl)urea] |
| 9.11 |  | O=C(Nc1ccc(O)cn1)N1CCN(c2cccnc2)CC1 [Example 39, 1-[((5-Hydroxypyridin-2-yl)amino)carbonyl]-4-(pyridin-3-yl)piperazine] |
| 80.7 |  | O=C(Nc1ccc(O)cn1)N1CCN(Cc2ccccc2)CC1 [Example 37, 4-benzyl-N-(5-hydroxypyridin-2-yl)piperazine-1-carboxamide] |
| 94.8 | 4 | O=C(Nc1ccc(O)cn1)OC1CCN(c2ccc(F)cc2)CC1 [Example 53, 1-(4-fluorophenyl)piperidin-4-yl N-(5-hydroxypyridin-2-yl)carbamate] |
| 85.3 |  | O=S(=O)(Nc1ccc(O)cn1)C1CCN(c2ccc(Cl)cn2)CC1 [Example 67, 1-(5-chloropyridin-2-yl)-N-(5-hydroxypyridin-2-yl)piperidine-4-sulfonamide] |
| 91.5 | 32 to 51 | O=C(Nc1ccc(O)cn1)N1CCN(c2ccc(F)cc2)CC1 [Example 5, 4-(4-Fluorophenyl)-N-(5-hydroxypyridin-2-yl)piperazine-1-carboxamide] |
|  | 5 | O=C(Nc1ccc(O)cn1)OC1CCN(c2ccc(F)cc2F)CC1 [Example 54, 1-(2,4-difluorophenyl)piperidin-4-yl N-(5-hydroxypyridin-2-yl)carbamate] |
| 85.4 |  | N#Cc1ccc(N2CCN(C(=O)Nc3ccc(O)cn3)CC2)nc1 [Example 34, 4-(5-cyanopyridin-2-yl)-N-(5-hydroxypyridin-2-yl)piperazine-1-carboxamide] |
| 87.9 | 53 | O=C(Nc1ccc(O)cn1)N1CCN(c2ccccc2)CC1 [Example 3, N-(5-Hydroxypyridin-2-yl)-4-phenylpiperazine-1-carboxamide] |
| 92.7 | 25 | O=C(Oc1ccc(O)cn1)N1CCN(c2ccc(C(F)(F)F)cn2)CC1 [Example 88, 5-hydroxypyridin-2-yl 4-[5-(trifluoromethyl)pyridin-2-yl]piperazine-1-carboxylate] |
| 58.6 |  | O=C(Nc1ccc(O)cc1)N1CCN(c2ccc(F)cc2)CC1 [Example 29, 4-(4-fluorophenyl)-N-(4-hydroxyphenyl)piperazine-1-carboxamide] |
| 91.5 | 92 | O=C(Nc1ccc(O)cn1)NC1CCN(c2ccc(F)cc2)CC1 [Example 51, 1-[1-(4-fluorophenyl)piperidin-4-yl]-3-(5-hydroxypyridin-2-yl)urea] |
